# How the values were obtained:
# [1] = test system: PC3, A-172 and HUH7 xenografted tumors; assay: Metastasis and mortality of treated SCID mice, all tumors pooled; assay type: in vivo, mouse; settings: for mortality of xenografted mice: tumors positive for MAN2A1-FER
# Text: (§1) Treatment of Severe Combined Immunodeficient Mice Xenografted With Cancer Cells. For kinase inhibitor treatment experiments, PMF, GMF, HUH7, and HUH7/ko cells (2×10^7 cells) were xenografted into the subcutaneous region of SCID mice. […] Serial sections of formalin-fixed, paraffin-embedded lung, brain, liver, kidney, vertebra, and lymph node specimens were collected, stained with H&E, and examined microscopically.
# [2] = test system: PC3, A-172 or HUH7 with or without MAN2A1-FER; assay: Killing of cancer cell lines with or without MAN2A1-FER (summary over cell lines); assay type: cell-based; settings: Homo sapiens, read-out: IC50 values (50% inhibitory concentrations)
# Text: (§2) FIG. 18. […] Factions of cell death were then quantified by Annexin V and propridium iodide staining. […] Factions of cell death were then quantified by Annexin V and propridium iodide staining. […] Factions of cell death were then quantified by Annexin V and propridium iodide staining.
# (§3) Since the kinase activity of MAN2A1-FER and EGFR activation are the drivers of MAN2A1-FER oncogenic activity, it is of interest to examine whether inhibition of the kinase activity of MAN2A1-FER or EGFR interrupts the oncogenic activity of MAN2A1-FER, and thus the growth of the tumors.
# A-172 cells xenograft = assay: Kinase inhibitor treatment of SCID mice xenografted with A-172 (GMF) cells; assay type: in vivo, mouse; settings: for reduction of final tumor size: A-172, MAN2A1-FER present, vs DMSO controls, crizotinib 12.5 mg/kg, canertinib 10 mg/kg, 3 times a week, peritoneal injection
# Text: as §1
# [3] = test system: GMF cells (A-172 with inducible MAN2A1-FER-FLAG); assay: Cell death by Annexin V and propidium iodide staining, GMF cells; assay type: cell-based; settings: Homo sapiens, A 172, GMF cells
# Text: as §2, §3
# HUH7 cells = assay: Cell death by Annexin V and propidium iodide staining, HUH7 cells and MAN2A1-FER knockout counterpart; assay type: cell-based; settings: Homo sapiens
# Text: as §2, §3
# HUH7 cells xenograft = assay: Kinase inhibitor treatment of SCID mice xenografted with HUH7 or HUH7/ko cells; assay type: in vivo, mouse; settings: for reduction of final tumor size: HUH7, MAN2A1-FER present, vs DMSO controls, crizotinib 12.5 mg/kg, canertinib 10 mg/kg, 3 times a week, peritoneal injection
# Text: as §1
# PC3 cells xenograft = assay: Kinase inhibitor treatment of SCID mice xenografted with PC3 (PMF) cells; assay type: in vivo, mouse; settings: for reduction of final tumor size: PC3, MAN2A1-FER present, vs DMSO controls, crizotinib 12.5 mg/kg, canertinib 10 mg/kg, 3 times a week, peritoneal injection
# Text: as §1
# [4] = test system: PMF cells (PC3 with inducible MAN2A1-FER-FLAG); assay: Cell death by Annexin V and propidium iodide staining, PMF cells; assay type: cell-based; settings: Homo sapiens
# Text: as §2, §3
# GST-MAN2A1-FER = target: T1, GST-MAN2A1-FER (Homo sapiens, UniProt P16591); assay: Phosphorylation of HisTAG-EGFR aa1-650 by GST-MAN2A1-FER with excessive peptide; assay type: biochemical; settings: excessive amount of peptide; HisTAG-EGFR aa1-650 substrate
# T1 construct: while leaving the tyrosine kinase domain in FER largely intact; MAN2A1 N-terminal 703 amino acids (fusion partner, itself N-terminally GST-tagged); made in house; host or cells: Escherichia coli BL21; the other entry of the earlier key: MAN2A1 (Q16706, Alpha-mannosidase 2)
# T1 sequence (P16591 with tags, fused parts or gaps): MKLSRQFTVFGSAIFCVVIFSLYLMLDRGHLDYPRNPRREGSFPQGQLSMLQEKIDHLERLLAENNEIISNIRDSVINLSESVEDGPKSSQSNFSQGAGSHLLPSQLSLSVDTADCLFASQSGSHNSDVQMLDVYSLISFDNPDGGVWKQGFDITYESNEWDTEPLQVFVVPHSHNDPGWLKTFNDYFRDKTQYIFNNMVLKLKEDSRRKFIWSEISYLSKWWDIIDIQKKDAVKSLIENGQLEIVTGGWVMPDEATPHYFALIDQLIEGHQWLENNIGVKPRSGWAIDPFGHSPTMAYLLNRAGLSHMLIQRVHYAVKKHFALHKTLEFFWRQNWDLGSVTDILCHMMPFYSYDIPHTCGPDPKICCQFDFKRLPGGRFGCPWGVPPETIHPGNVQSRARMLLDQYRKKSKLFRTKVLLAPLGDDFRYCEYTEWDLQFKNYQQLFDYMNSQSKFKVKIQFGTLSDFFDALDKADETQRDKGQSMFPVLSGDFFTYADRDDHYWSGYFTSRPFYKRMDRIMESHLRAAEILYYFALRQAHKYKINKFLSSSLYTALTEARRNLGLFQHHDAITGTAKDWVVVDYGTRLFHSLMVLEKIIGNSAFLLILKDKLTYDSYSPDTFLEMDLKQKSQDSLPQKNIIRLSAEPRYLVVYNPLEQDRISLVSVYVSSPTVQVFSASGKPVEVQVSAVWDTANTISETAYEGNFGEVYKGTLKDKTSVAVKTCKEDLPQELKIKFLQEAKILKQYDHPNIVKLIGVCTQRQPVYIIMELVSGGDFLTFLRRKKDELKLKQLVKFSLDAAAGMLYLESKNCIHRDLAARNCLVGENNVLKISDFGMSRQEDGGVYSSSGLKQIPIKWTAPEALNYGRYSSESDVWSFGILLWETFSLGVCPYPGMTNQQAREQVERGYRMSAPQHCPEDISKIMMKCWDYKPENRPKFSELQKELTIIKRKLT
# [5] = MAN2A1-FER negative cells, control 1/18
# [6] = all tumors (PC3, A-172, HUH7), MAN2A1-FER present, controls 11/18
# [7] = A-172, MAN2A1-FER not present, same regimen
# [8] = Huh-7, HUH7 KO (MAN2A1-FER knockout)
# [9] = Huh-7, HUH7 WT (MAN2A1-FER positive)
Molecule,"metastasis (mice with metastasis / mice) [1, 5]","metastasis (mice with metastasis / mice) [1, 6]",mortality of xenografted mice [1],IC50 [2] [nM],reduction of tumor size (A-172 cells xenograft; [7]) [%],reduction of final tumor size (A-172 cells xenograft) [%],IC50 ([3]; Tet+ (MAN2A1-FER-FLAG induced)) [nM],IC50 ([3]; Tet− (no MAN2A1-FER-FLAG)) [nM],IC50 (HUH7 cells; [8]) [nM],IC50 (HUH7 cells; [9]) [nM],"reduction of tumor size (HUH7 cells xenograft; HUH7, MAN2A1-FER not present (knockout), same regimen) [%]",reduction of final tumor size (HUH7 cells xenograft) [%],"reduction of tumor size (PC3 cells xenograft; PC3, MAN2A1-FER not present, same regimen) [%]",reduction of final tumor size (PC3 cells xenograft) [%],IC50 ([4]; Tet+ (MAN2A1-FER-FLAG induced)) [nM],IC50 ([4]; Tet− (no MAN2A1-FER-FLAG)) [nM],increase of tumor size (A-172 cells xenograft; [7]) [%],blocking of phosphorylation of EGFR N-terminus by GST-MAN2A1-FER (GST-MAN2A1-FER)
C=CC(=O)Nc1cc2c(Nc3ccc(F)c(Cl)c3)ncnc2cc1OCCCN1CCOCC1 [canertinib],2/18,0/18,completely eliminated the mortality,< 15,19.2,73.2,10.7,26.5,30.3,14.7,40.2,81.7,32.0,85.0,10.9,25.1,–,–
C[C@@H](Oc1cc(-c2cnn(C3CCNCC3)c2)cnc1N)c1c(Cl)ccc(F)c1Cl [crizotinib],2/18,0/18,completely eliminated the mortality,–,–,67.6,33.1,64.5,52.9,28.9,–,80.7,–,78.6,20.8,43.4,4,–
FLKTIQEVAGYVLIALNTVER [peptide 3],–,–,–,–,–,–,–,–,–,–,–,–,–,–,–,–,–,partially blocked

# — patent publication US12692547B2, “Methods of treating cancers containing fusion genes” (UNIVERSITY OF PITTSBURGH—OF THE COMMONWEALTH SYSTEM OF …, priority 2016, dated 2026)
